# Measurements taken from patent US6372446B1, “Method of selectively determining a fungal biomass” (Mycometer ApS, priority 1997, dated 2002).
# Key:
# Test in all cases: Screening of fungi for enzyme activity with 4-methylumbelliferone-labelled substrates
# Format in all cases: cell-based
# [1] = tested on: Aureobasidium pullulans (QM 3092); conditions: substrate 10 μM, 25° C., pH 5; for Enzyme activity: amount of released 4-methylumbelliferone during 5 hours of incubation: Aureobasidium pulluians (QM 3092), vegetable juice medium; for Enzyme activity: amount of released 4-methylumbelliferone: Aureobasidium pullulans (QM 3092), mineral medium
# [2] = tested on: Aspergillus versicolor (IBT 13738); conditions: substrate 10 μM, 25° C., pH 5; for Enzyme activity: amount of released 4-methylumbelliferone: mineral medium; for Enzyme activity: amount of released 4-methylumbelliferone during 5 hours of incubation: vegetable juice medium
# [3] = tested on: Aspergillus oryzae (AGM 11); conditions: substrate 10 μM, 25° C., pH 5; for Enzyme activity: amount of released 4-methylumbelliferone: mineral medium; for Enzyme activity: amount of released 4-methylumbelliferone during 5 hours of incubation: vegetable juice medium
# [4] = tested on: Eurotium sp. (AAS 36); conditions: substrate 10 μM, 25° C., pH 5; for Enzyme activity: amount of released 4-methylumbelliferone: mineral medium; for Enzyme activity: amount of released 4-methylumbelliferone during 5 hours of incubation: vegetable juice medium
# [5] = tested on: Rhizomucor pusillus (AAS 300); conditions: substrate 10 μM, 25° C., pH 5; for Enzyme activity: amount of released 4-methylumbelliferone: mineral medium; for Enzyme activity: amount of released 4-methylumbelliferone during 5 hours of incubation: vegetable juice medium
# [6] = tested on: Trametes versicolor (AGM 24); conditions: substrate 10 μM, 25° C., pH 5; for Enzyme activity: amount of released 4-methylumbelliferone: mineral medium; for Enzyme activity: amount of released 4-methylumbelliferone during 5 hours of incubation: vegetable juice medium
# [7] = tested on: Ascobolus crenulatus (AAS 1); conditions: substrate 10 μM, 25° C., pH 5; for Enzyme activity: amount of released 4-methylumbelliferone: mineral medium; for Enzyme activity: amount of released 4-methylumbelliferone during 5 hours of incubation: vegetable juice medium
# [8] = tested on: Penicillium solitum (IBT 13771); conditions: substrate 10 μM, 25° C., pH 5; for Enzyme activity: amount of released 4-methylumbelliferone: mineral medium; for Enzyme activity: amount of released 4-methylumbelliferone during 5 hours of incubation: vegetable juice medium
# [9] = tested on: Schizophyllum commune (AGM 25); conditions: substrate 10 μM, 25° C., pH 5; for Enzyme activity: amount of released 4-methylumbelliferone: mineral medium; for Enzyme activity: amount of released 4-methylumbelliferone during 5 hours of incubation: vegetable juice medium
# [10] = tested on: Paecilomyces farinosus (AGM 5); conditions: substrate 10 μM, 25° C., pH 5; for Enzyme activity: amount of released 4-methylumbelliferone: mineral medium; for Enzyme activity: amount of released 4-methylumbelliferone during 5 hours of incubation: vegetable juice medium
# [11] = tested on: Cladosporium herbarum (AGM 8); conditions: substrate 10 μM, 25° C., pH 5; for Enzyme activity: amount of released 4-methylumbelliferone: mineral medium; for Enzyme activity: amount of released 4-methylumbelliferone during 5 hours of incubation: vegetable juice medium
# [12] = tested on: Sodaria fimicola (AAS 17); conditions: substrate 10 μM, 25° C., pH 5; for Enzyme activity: amount of released 4-methylumbelliferone: mineral medium; for Enzyme activity: amount of released 4-methylumbelliferone during 5 hours of incubation: vegetable juice medium
# [13] = tested on: Mucor racemosus (AAS 310); conditions: substrate 10 μM, 25° C., pH 5; for Enzyme activity: amount of released 4-methylumbelliferone: mineral medium; for Enzyme activity: amount of released 4-methylumbelliferone during 5 hours of incubation: vegetable juice medium
# [14] = tested on: Penicillium commune (IBT 13713); conditions: substrate 10 μM, 25° C., pH 5; for Enzyme activity: amount of released 4-methylumbelliferone: mineral medium; for Enzyme activity: amount of released 4-methylumbelliferone during 5 hours of incubation: vegetable juice medium
Enzyme activity: amount of released 4-methylumbelliferone during 5 hours of incubation [1],Enzyme activity: amount of released 4-methylumbelliferone [1],Enzyme activity: amount of released 4-methylumbelliferone [2] [µmol],Enzyme activity: amount of released 4-methylumbelliferone during 5 hours of incubation [2],Enzyme activity: amount of released 4-methylumbelliferone [3] [µmol],Enzyme activity: amount of released 4-methylumbelliferone during 5 hours of incubation [3],Enzyme activity: amount of released 4-methylumbelliferone [4] [µmol],Enzyme activity: amount of released 4-methylumbelliferone during 5 hours of incubation [4] [µmol],Enzyme activity: amount of released 4-methylumbelliferone [5] [µmol],Enzyme activity: amount of released 4-methylumbelliferone during 5 hours of incubation [5],Enzyme activity: amount of released 4-methylumbelliferone [6] [µmol],Enzyme activity: amount of released 4-methylumbelliferone during 5 hours of incubation [6] [µmol],Enzyme activity: amount of released 4-methylumbelliferone [7] [µmol],Enzyme activity: amount of released 4-methylumbelliferone during 5 hours of incubation [7] [µmol],Enzyme activity: amount of released 4-methylumbelliferone [8] [µmol],Enzyme activity: amount of released 4-methylumbelliferone during 5 hours of incubation [8],Enzyme activity: amount of released 4-methylumbelliferone [9] [µmol],Enzyme activity: amount of released 4-methylumbelliferone during 5 hours of incubation [9],Enzyme activity: amount of released 4-methylumbelliferone [10] [µmol],Enzyme activity: amount of released 4-methylumbelliferone during 5 hours of incubation [10] [µmol],Structure (SMILES),also measured
0 µmol,0 µmol,0,0 µmol,0,* (0.4 ≦ * < 1),0,0,0,* (0.4 ≦ * < 1),0,0,0,0,0,0 µmol,0,** (1 ≦ ** 2),0,0,"Cc1cc(=O)oc2cc(O[C@@H]3O[C@H](CO)[C@@H](O[C@@H]4O[C@H](CO)[C@H](O)[C@H](O)[C@H]4O)[C@H](O)[C@H]3O)ccc12 [substrate 8, 4-methylumbelliferyl β-D-lactoside]",Enzyme activity: amount of released 4-methylumbelliferone [11]: 0 µmol; Enzyme activity: amount of released 4-methylumbelliferone during 5 hours of incubation [11]: 0 µmol; Enzyme activity: amount of released 4-methylumbelliferone [12]: 0 µmol; Enzyme activity: amount of released 4-methylumbelliferone during 5 hours of incubation [12]: ** (1 ≦ ** 2); Enzyme activity: amount of released 4-methylumbelliferone [13]: 0 µmol; Enzyme activity: amount of released 4-methylumbelliferone during 5 hours of incubation [13]: 0 µmol; Enzyme activity: amount of released 4-methylumbelliferone [14]: 0 µmol; Enzyme activity: amount of released 4-methylumbelliferone during 5 hours of incubation [14]: 0 µmol
*** (2 ≦ ***),0 µmol,0,*** (2 ≦ ***),0,*** (2 ≦ ***),0,0,0,*** (2 ≦ ***),0,0,0,0,0,** (1 ≦ ** 2),0,*** (2 ≦ ***),0,0,"Cc1cc(=O)oc2cc(O[C@@H]3OC[C@@H](O)[C@H](O)[C@H]3O)ccc12 [substrate 9, 4-methylumbelliferyl β-D-xyloside]",Enzyme activity: amount of released 4-methylumbelliferone [11]: 0 µmol; Enzyme activity: amount of released 4-methylumbelliferone during 5 hours of incubation [11]: 0 µmol; Enzyme activity: amount of released 4-methylumbelliferone [12]: 0 µmol; Enzyme activity: amount of released 4-methylumbelliferone during 5 hours of incubation [12]: 0 µmol; Enzyme activity: amount of released 4-methylumbelliferone [13]: 0 µmol; Enzyme activity: amount of released 4-methylumbelliferone during 5 hours of incubation [13]: 0 µmol; Enzyme activity: amount of released 4-methylumbelliferone [14]: 0 µmol; Enzyme activity: amount of released 4-methylumbelliferone during 5 hours of incubation [14]: * (0.4 ≦ * < 1)
0 µmol,* (0.4 ≦ * < 1),0,0 µmol,0,0 µmol,0,0,0,*** (2 ≦ ***),0,0,0,0,0,0 µmol,0,0 µmol,0,0,"Cc1cc(=O)oc2cc(O[C@H]3O[C@H](C)[C@H](O)[C@H](O)[C@H]3O)ccc12 [substrate 10, 4-methylumbelliferyl α-D-fucoside]",Enzyme activity: amount of released 4-methylumbelliferone [11]: 0 µmol; Enzyme activity: amount of released 4-methylumbelliferone during 5 hours of incubation [11]: 0 µmol; Enzyme activity: amount of released 4-methylumbelliferone [12]: 0 µmol; Enzyme activity: amount of released 4-methylumbelliferone during 5 hours of incubation [12]: 0 µmol; Enzyme activity: amount of released 4-methylumbelliferone [13]: 0 µmol; Enzyme activity: amount of released 4-methylumbelliferone during 5 hours of incubation [13]: ** (1 ≦ ** 2); Enzyme activity: amount of released 4-methylumbelliferone [14]: 0 µmol; Enzyme activity: amount of released 4-methylumbelliferone during 5 hours of incubation [14]: 0 µmol
0 µmol,0 µmol,0,0 µmol,0,0 µmol,0,0,0,0 µmol,0,0,0,0,0,0 µmol,0,0 µmol,0,0,"Cc1cc(=O)oc2cc(O[C@@H]3O[C@H](C)[C@H](O)[C@H](O)[C@H]3O)ccc12 [substrate 11, 4-methylumbelliferyl β-D-fucoside]",Enzyme activity: amount of released 4-methylumbelliferone [11]: 0 µmol; Enzyme activity: amount of released 4-methylumbelliferone during 5 hours of incubation [11]: 0 µmol; Enzyme activity: amount of released 4-methylumbelliferone [12]: 0 µmol; Enzyme activity: amount of released 4-methylumbelliferone during 5 hours of incubation [12]: 0 µmol; Enzyme activity: amount of released 4-methylumbelliferone [13]: 0 µmol; Enzyme activity: amount of released 4-methylumbelliferone during 5 hours of incubation [13]: 0 µmol; Enzyme activity: amount of released 4-methylumbelliferone [14]: 0 µmol; Enzyme activity: amount of released 4-methylumbelliferone during 5 hours of incubation [14]: 0 µmol
